The target of this assay is T1, AR protein expression in human prostate cancer cells LNCaP (Homo sapiens, UniProt P10275, T878A).
T1 sequence (P10275 1-920 T878A): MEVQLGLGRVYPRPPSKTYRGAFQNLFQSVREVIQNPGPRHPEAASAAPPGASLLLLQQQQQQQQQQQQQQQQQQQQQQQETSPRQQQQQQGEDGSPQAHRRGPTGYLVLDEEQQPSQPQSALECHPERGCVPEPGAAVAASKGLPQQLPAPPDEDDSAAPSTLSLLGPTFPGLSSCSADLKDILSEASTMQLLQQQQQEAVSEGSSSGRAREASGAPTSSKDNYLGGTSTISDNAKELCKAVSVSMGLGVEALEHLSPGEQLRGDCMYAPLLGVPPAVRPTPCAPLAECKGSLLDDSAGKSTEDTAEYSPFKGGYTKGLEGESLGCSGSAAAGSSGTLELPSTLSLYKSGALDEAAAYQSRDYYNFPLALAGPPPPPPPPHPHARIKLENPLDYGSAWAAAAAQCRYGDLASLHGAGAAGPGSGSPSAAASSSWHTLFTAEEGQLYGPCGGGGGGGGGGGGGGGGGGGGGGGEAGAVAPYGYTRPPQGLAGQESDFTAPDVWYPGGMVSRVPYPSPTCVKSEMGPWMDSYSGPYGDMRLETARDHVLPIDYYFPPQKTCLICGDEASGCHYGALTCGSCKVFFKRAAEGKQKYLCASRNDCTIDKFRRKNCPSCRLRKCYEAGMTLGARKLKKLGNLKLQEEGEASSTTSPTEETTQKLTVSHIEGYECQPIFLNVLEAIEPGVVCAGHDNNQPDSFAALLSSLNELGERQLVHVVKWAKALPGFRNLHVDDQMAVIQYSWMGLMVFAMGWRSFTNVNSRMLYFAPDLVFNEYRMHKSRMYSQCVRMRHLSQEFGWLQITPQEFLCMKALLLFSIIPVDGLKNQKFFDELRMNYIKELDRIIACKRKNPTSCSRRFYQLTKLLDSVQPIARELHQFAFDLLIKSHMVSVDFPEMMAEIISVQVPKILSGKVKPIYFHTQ
Nature of the assay: Reduction of AR protein expression in LNCaP cells (Western blot, with DHT). In kind it is cell-based. Particulars: 1 nM DHT; for anti-AR activity (in words): Western blot; for AR reduction percentage / Relative potency (anti-AR activity): 48 h; for Relative potency (anti-AR activity): concentration basis not given. On the procedure: The term “anti-AR activity” refers to the ability of the compound of the present disclosure to reduce AR expression in human prostate cancer cells LNCaP, and the ability of the compound of the present disclosure to reduce AR expression is expressed in AR reduction percentage (%) herein. […] The AR reduction percentage (%) is calculated as follows: AR reduction percentage (%)=(AR in DHT group/GAPDH value−AR in test compound group/GAPDH value)/AR in DHT group/GAPDH value×100%.
AR is a key factor for regulating the response of prostate cancer cells to androgens. AR is also a key factor for the response of hair follicles or tissues around the hair follicles to androgens, and the reduction of the AR content not only can down-regulate the growth of the prostate cancer cells, but also can inhibit androgenetic alopecia. This test example is to test the effects of the compounds of the present disclosure on the reduction of AR protein expression in human prostate cancer cells LNCaP in the presence of DHT. The compounds of the present disclosure were analyzed for anti-AR activity in human prostate cancer cells LNCaP by measuring the reduction of AR protein using the Western blot method.
Human prostate cancer cells LNCaP were seeded in a 6-well plate at 4×10^5 cells/mL and at a volume of 2 mL per well. The plate was incubated overnight in a cell incubator. DMSO and dihydrotestosterone (DHT, 1 nM) were used as control groups. Assays were performed in the presence of dihydrotestosterone (DHT, 1 nM). After incubating with the test compounds for a specified time, the cells were collected and dissolved according to the Western blot technique known in the biochemical art. A DMSO group, a DHT group (1 nM) and test compound groups (containing 1 nM DHT) were set during the assay. DMSO and DHT (1 nM DHT) were added to 6-well plates corresponding to the DMSO group and the DHT group, respectively. […] The protein concentration was quantified using the BCA kit, and then the samples were stored for later use.
The content of the AR protein in each group was determined by using Western Blot, and the loading amount of the sample in each group was […]. Western blot analysis has been disclosed in the prior art. Specifically, the cells were collected in 2× sodium dodecyl sulfate/polyacrylamide gel electrophoresis loading buffer or in radioimmunoprecipitation assay (RIPA) buffer strengthened with 10 μg/mL benzamidine, 10 μg/mL trypsin inhibitor, and 1 mM phenylmethylsulfonyl fluoride. A sample of total protein (about 40 μg) from each cell lysate was separated by electrophoresis on an SDS/PAGE gel. After separation by electrophoresis, the proteins were transferred from the gel to a nitrocellulose membrane following the standard procedures. The membrane was then incubated with 10% non-fat milk in phosphate-buffered saline supplemented with 0.1% Tween 20 (PBST) for 1 h, followed by incubation with a primary human AR-specific antibody (purchased from BD-Harlingen) at 4° C. overnight. After incubation, the membrane was washed 3 times with PBST buffer, each for 10 mins. An alkaline phosphatase-conjugated secondary antibody was then added, and the membrane was incubated at room temperature for 1 h. After the secondary incubation, the membrane was washed again with PBST, and the AR protein signal in the membrane was visualized by adding an alkaline phosphatase medium, bromochloroindolyl phosphate, and nitrotetrazole to the membrane. To ensure that an equal amount of protein from each sample was analyzed, a portion of the membrane was kept with a specific antibody for the regulatory protein GAPDH (Santa Cruz Biotechnology), and the GAPDH signal was visualized with the secondary antibody described above. The protein signal intensity (as indicated by color bands on the membrane) was measured using a densitometer and analyzed by the NIH Image J software (NIH1.33).
A general note: A western blot detects proteins with antibodies after separation by electrophoresis.

On to `COc1ccc(/C=C/C(=O)C2(C(=O)/C=C/c3ccc(OC)c(OC)c3)CCC(=O)CC2)cc1OC` [Compound 7], for which the “anti-AR activity (in words)” value is on record as “significant anti-AR activities” and the “Relative potency (anti-AR activity)” value is “+++++ (62.5 < * ≤ 75)”. The AR reduction percentage (2.5 μmol/L compound) was found to be 0%. This molecule also had an AR reduction percentage (5 μmol/L compound) of 67.3%. Besides, the AR reduction percentage (10 μmol/L compound) was found to be 95.6%.
As to `COc1ccc(/C=C/C(=O)C2(C(=O)/C=C/c3ccc(OC)c(OC)c3)CCC(F)(F)CC2)cc1OC` [Compound 8], the “anti-AR activity (in words)” value is given as “significant anti-AR activities” and the “Relative potency (anti-AR activity)” value is “++++++ (75 < * ≤ 100)”. This molecule yielded an AR reduction percentage (2.5 μmol/L compound) of 57.5%. In addition, the AR reduction percentage (5 μmol/L compound) is 87.3%. The molecule further gave an AR reduction percentage (10 μmol/L compound) of 92.2%.

For the origin of these results see patent publication US20250295609A1, “COMPOUND HAVING ANTI-ANDROGEN RECEPTOR ACTIVITY, AND USE THEREOF” (NANJING MINOVA PHARMACEUTICAL CO., LTD., priority 2022, published 2025).
